# Experimental data taken from PubChem BioAssay (NCI).
#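 GI50 = concentration required for 50% inhibition of growth. At the TGI there is no net growth.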
# How the values were obtained:
# Assay in all cases: growth of human tumour cells (NCI), 384-well format
# 786-0 renal = tested on: 786-0 renal
# A498 renal = tested on: A498 renal
# A549 NSCLC = tested on: A549 NSCLC
# ACHN renal = tested on: ACHN renal
# BT-549 breast = tested on: BT-549 breast
# CAKI-1 renal = tested on: CAKI-1 renal
# CCRF-CEM leukemia = tested on: CCRF-CEM leukemia
# COLO 205 colon = tested on: COLO 205 colon
# DU-145 prostate = tested on: DU-145 prostate
# EKVX NSCLC = tested on: EKVX NSCLC
# HCC-2998 colon = tested on: HCC-2998 colon
# HCT-116 colon = tested on: HCT-116 colon
# HCT-15 colon = tested on: HCT-15 colon
# HL-60(TB) leukemia = tested on: HL-60(TB) leukemia
# HOP-62 NSCLC = tested on: HOP-62 NSCLC
# HOP-92 NSCLC = tested on: HOP-92 NSCLC
# HS 578T breast = tested on: HS 578T breast
# HT29 colon = tested on: HT29 colon
# IGROV1 ovarian = tested on: IGROV1 ovarian
# K-562 leukemia = tested on: K-562 leukemia
# KM12 colon = tested on: KM12 colon
# LOX IMVI melanoma = tested on: LOX IMVI melanoma
# M14 melanoma = tested on: M14 melanoma
# MALME-3M melanoma = tested on: MALME-3M melanoma
# MCF7 breast = tested on: MCF7 breast
# MDA-MB-435 melanoma = tested on: MDA-MB-435 melanoma
# MDA-MB-468 breast = tested on: MDA-MB-468 breast
# MOLT-4 leukemia = tested on: MOLT-4 leukemia
# NCI-H226 lung = tested on: NCI-H226 lung
# NCI-H23 lung = tested on: NCI-H23 lung
# NCI-H322M lung = tested on: NCI-H322M lung
# NCI-H460 NSCLC = tested on: NCI-H460 NSCLC
# NCI-H522 lung = tested on: NCI-H522 lung
# NCI/ADR-RES ovarian = tested on: NCI/ADR-RES ovarian
# OVCAR-3 ovarian = tested on: OVCAR-3 ovarian
# OVCAR-4 ovarian = tested on: OVCAR-4 ovarian
# OVCAR-8 ovarian = tested on: OVCAR-8 ovarian
# PC-3 prostate = tested on: PC-3 prostate
# RPMI-8226 leukemia = tested on: RPMI-8226 leukemia
# RXF 393 renal = tested on: RXF 393 renal
# SF-268 CNS = tested on: SF-268 CNS
# SF-295 CNS = tested on: SF-295 CNS
# SF-539 CNS = tested on: SF-539 CNS
# SK-MEL-2 melanoma = tested on: SK-MEL-2 melanoma
# SK-MEL-28 melanoma = tested on: SK-MEL-28 melanoma
# SK-MEL-5 melanoma = tested on: SK-MEL-5 melanoma
# SK-OV-3 ovarian = tested on: SK-OV-3 ovarian
# SN12C renal = tested on: SN12C renal
# SNB-19 CNS = tested on: SNB-19 CNS
# SNB-75 CNS = tested on: SNB-75 CNS
# SW-620 colon = tested on: SW-620 colon
# TK-10 renal = tested on: TK-10 renal
# U251 glioblastoma = tested on: U251 glioblastoma
# UACC-257 melanoma = tested on: UACC-257 melanoma
# UACC-62 melanoma = tested on: UACC-62 melanoma
structure (smiles),measurement,setting,value
N#Cc1ccc(OC(=O)Nc2cc(Cl)cc(Cl)c2)cc1,GI50,786-0 renal,7.03 µM
same,TGI,786-0 renal,20.1 µM
same,GI50,A498 renal,3.47 µM
same,TGI,A498 renal,9.21 µM
same,GI50,A549 NSCLC,3.78 µM
same,TGI,A549 NSCLC,12.7 µM
same,GI50,ACHN renal,3.51 µM
same,TGI,ACHN renal,10 µM
same,GI50,BT-549 breast,13.4 µM
same,TGI,BT-549 breast,30.8 µM
same,GI50,CAKI-1 renal,3.69 µM
same,TGI,CAKI-1 renal,10.2 µM
same,GI50,CCRF-CEM leukemia,2190 nM
same,TGI,CCRF-CEM leukemia,5.31 µM
same,GI50,COLO 205 colon,6.65 µM
same,TGI,COLO 205 colon,23.9 µM
same,GI50,DU-145 prostate,4.29 µM
same,TGI,DU-145 prostate,55.5 µM
same,GI50,EKVX NSCLC,3.92 µM
same,TGI,EKVX NSCLC,12.6 µM
same,GI50,HCC-2998 colon,13.2 µM
same,TGI,HCC-2998 colon,30.8 µM
same,GI50,HCT-116 colon,3.12 µM
same,TGI,HCT-116 colon,7.62 µM
same,GI50,HCT-15 colon,4.14 µM
same,TGI,HCT-15 colon,12.1 µM
same,GI50,HL-60(TB) leukemia,1770 nM
same,TGI,HL-60(TB) leukemia,3.16 µM
same,GI50,HOP-62 NSCLC,3.03 µM
same,TGI,HOP-62 NSCLC,6.05 µM
same,GI50,HOP-92 NSCLC,3.23 µM
same,TGI,HOP-92 NSCLC,7.12 µM
same,GI50,HS 578T breast,7.57 µM
same,TGI,HS 578T breast,20.5 µM
same,GI50,HT29 colon,4.43 µM
same,TGI,HT29 colon,17.3 µM
same,GI50,IGROV1 ovarian,4.43 µM
same,TGI,IGROV1 ovarian,15.3 µM
same,GI50,K-562 leukemia,7.71 µM
same,TGI,K-562 leukemia,93.1 µM
same,GI50,KM12 colon,3.74 µM
same,TGI,KM12 colon,11 µM
same,GI50,LOX IMVI melanoma,3.81 µM
same,TGI,LOX IMVI melanoma,12.7 µM
same,GI50,M14 melanoma,5.38 µM
same,TGI,M14 melanoma,15 µM
same,GI50,MALME-3M melanoma,5.9 µM
same,TGI,MALME-3M melanoma,16.4 µM
same,GI50,MCF7 breast,3.75 µM
same,TGI,MCF7 breast,16 µM
same,GI50,MDA-MB-435 melanoma,8.94 µM
same,TGI,MDA-MB-435 melanoma,23.6 µM
same,GI50,MDA-MB-468 breast,9.04 µM
same,TGI,MDA-MB-468 breast,20.9 µM
same,GI50,MOLT-4 leukemia,2000 nM
same,TGI,MOLT-4 leukemia,3.7 µM
same,GI50,NCI-H226 lung,3.27 µM
same,TGI,NCI-H226 lung,8.97 µM
same,GI50,NCI-H23 lung,2230 nM
same,TGI,NCI-H23 lung,4.16 µM
same,GI50,NCI-H322M lung,11.6 µM
same,TGI,NCI-H322M lung,29.4 µM
same,GI50,NCI-H460 NSCLC,2840 nM
same,TGI,NCI-H460 NSCLC,6.62 µM
same,GI50,NCI-H522 lung,3.23 µM
same,TGI,NCI-H522 lung,7.63 µM
same,GI50,NCI/ADR-RES ovarian,3.79 µM
same,TGI,NCI/ADR-RES ovarian,9.65 µM
same,GI50,OVCAR-3 ovarian,2440 nM
same,TGI,OVCAR-3 ovarian,5.16 µM
same,GI50,OVCAR-4 ovarian,8.27 µM
same,TGI,OVCAR-4 ovarian,62.2 µM
same,GI50,OVCAR-8 ovarian,4.1 µM
same,TGI,OVCAR-8 ovarian,12.6 µM
same,GI50,PC-3 prostate,3.27 µM
same,TGI,PC-3 prostate,7.27 µM
same,GI50,RPMI-8226 leukemia,2040 nM
same,TGI,RPMI-8226 leukemia,3.48 µM
same,GI50,RXF 393 renal,6.26 µM
same,TGI,RXF 393 renal,17.7 µM
same,GI50,SF-268 CNS,5.61 µM
same,TGI,SF-268 CNS,21.6 µM
same,GI50,SF-295 CNS,3.07 µM
same,TGI,SF-295 CNS,8.78 µM
same,GI50,SF-539 CNS,4.28 µM
same,TGI,SF-539 CNS,13.4 µM
same,GI50,SK-MEL-2 melanoma,2840 nM
same,TGI,SK-MEL-2 melanoma,5.82 µM
same,GI50,SK-MEL-28 melanoma,13.1 µM
same,TGI,SK-MEL-28 melanoma,30.6 µM
same,GI50,SK-MEL-5 melanoma,4.36 µM
same,TGI,SK-MEL-5 melanoma,13.2 µM
same,GI50,SK-OV-3 ovarian,6 µM
same,TGI,SK-OV-3 ovarian,19.9 µM
same,GI50,SN12C renal,4 µM
same,TGI,SN12C renal,13.2 µM
same,GI50,SNB-19 CNS,4.74 µM
same,TGI,SNB-19 CNS,19.1 µM
same,GI50,SNB-75 CNS,3.32 µM
same,TGI,SNB-75 CNS,9.94 µM
same,GI50,SW-620 colon,4.54 µM
same,TGI,SW-620 colon,14.6 µM
same,GI50,TK-10 renal,4.01 µM
same,TGI,TK-10 renal,13.1 µM
same,GI50,U251 glioblastoma,3.43 µM
same,TGI,U251 glioblastoma,7.96 µM
same,GI50,UACC-257 melanoma,6.12 µM
same,TGI,UACC-257 melanoma,15.9 µM
same,GI50,UACC-62 melanoma,7.22 µM
same,TGI,UACC-62 melanoma,19.3 µM
